In paper PMC4728661, “Cancer Prevention and Health Benefices of Traditionally Consumed Borago officinalis Plants” (Nutrients, 2016):

Tests used:
[1] = system: rats; set-up: method as in PMID 16026713; conditions: doses of 2 and 8 mg·kg^−1, brain tissue and peripheral blood; cited from earlier work
[2] = system: D. melanogaster; assay: Antigenotoxicity: SMART, combined treatments with H2O2 0.12 M; assay type: in vivo, Drosophila melanogaster; on Diagnosis, Large Single Spots >2 Cells m = 5: key: + (positive); − (negative); on Diagnosis, Small Single Spots 1–2 Cells m = 2: key: + (positive); − (negative); on Diagnosis, Total Spots m = 2: key: + (positive); − (negative); on Diagnosis, Twin Spots m = 5: key: + (positive); − (negative)
Experimental: The D. melanogaster system was selected for the determination of the safety of B. officinalis consumption as a well-recognized method to analyze vegetable complex mixtures using SMART [31, 32]. This test was used in order to evaluate the genotoxic and antigenotoxic activity of B. officinalis leaves and petioles as well as their selected bioactive compounds [33]. This activity was measured by direct visualization of the occurrence of recessive mutations in the wing hairs of two different D. melanogaster strains. Flies from experiments carried these visible wing genetic markers: the flare (flr) strain […]) TM3, Bd^s and the multiple wing-hair (mwh) strain […] [35]. The marker flare (flr^3, 3_38.3) produces individual malformed hairs and the marker multiple wing hairs (mwh, 3_0.3) produces multiple hairs per cell. Larvae used in treatments come from two types of crosses: the standard cross with flr^3/TM3, Bd^S females mated to […] and the reciprocal cross. Optimal fertile flies were anesthetized under CO2 narcotisation for cross selection and then placed in new vials for fertilization. After that, hybrid eggs from crossing were collected over an 8 h period and emerged larvae (72 ± 4 h later) were cleaned up for a few seconds in sterile distilled water to remove feeding medium rests. […] Bioactive compound concentrations were chosen on the basis of their known content in B. officinalis species. […] Larvae were fed on these media until pupation (about 48 h). After emergence, resulting adult flies were sacrificed under CO2 narcotisation and stored in a 70% ethanol solution in sterile water. […] For the evaluation of genotoxic effects, the frequencies of spots per fly of each treated series were compared to the concurrent negative control for each class of mutational clone as well as between simple and combined treatments for the same concentration comparisons. […] A multiple-decision procedure was used to categorize results as positive, inconclusive or negative. Inconclusive and positive results were evaluated by the non-parametric U test of Mann, Whitney and Wilcoxon. The inhibition percentage (IP) of genotoxicity was calculated from the total frequencies of spots per wing, following this formula [42]: IP = (genotoxin alone - sample + genotoxin) × 100/(genotoxin alone)(2) Significant differences of IP for each treatment respect to the positive control were analyzed with a Chi-square test.

[3] = Cytotoxicity: HL-60 growth/viability, Trypan Blue dye exclusion; assay type: cell-based, human; conditions: human, HL-60 cells (acute promyelocytic leukemia); HL-60, 72 h treatment, Trypan Blue; read-out: IC50 (cytotoxic effect)
Experimental: (§1) The human acute promyelocytic leukemia cell line HL-60 was routinely grown in suspension in RPMI medium (Invitrogen, Madrid, Spain) containing glutamine ([…], Sigma-Aldrich, St. Louis, MO, USA), antibiotics (100IU penicillin mL^−1 and 100 μg streptomycin mL^−1, Sigma-Aldrich) and supplemented with 10% heat-inactivated foetal bovine serum (Linus, Cultek, Madrid, Spain) and placed in an incubator (Shel Lab, Cornelious, OR, USA) with a 5% CO2 humidified atmosphere at 37 °C [36]. HL-60 cells were subcultured every 2–3 days to maintain logarithmic growth and they were allowed to grow for 48 h before use. Cultures were plated at a density of 12.5 × 10^4 cells mL^−1 in 40 mL culture flasks (25 cm^2). Cytotoxic activity was measured as growing inhibition or decreased viability on HL-60 cells following a previous protocol modified by us. […] Cells were counted after 72 h treatment. Tested concentrations were calculated according to those used for in vivo assays to equal the range of tested doses. Untreated cultures were used as negative control. Cell viability was determined by the Trypan Blue dye exclusion test. Cells were stained with an equal volume of Trypan Blue commercial solution (Sigma-Aldrich) and counted using a hemocytometer at room temperature under a light inverted microscope (AE30/31, Motic, Barcelona, Spain). Cytotoxic effect evaluation was determined after each culture incubation period, establishing a growth curve and determining IC50 values by regression analysis of the curves. Viability estimated regressions of leukemia cells are presented as a survival percentage with respect to controls at 72 h growth and plotted as mean viability ± standard error of at least three independent replicas for each treatment and concentration.

[4] = system: HL-60 cells; assay: as above; assay type: cell-based, human; conditions: 72 h; for Effect on HL-60 growth: 0.03–1 mM
Experimental: as §1

[5] = system: V79 cell line; set-up: method as in doi:10.3389/conf.fgene.2015.01.0004; conditions: dose dependent, concentrations below 2 mM reduce DNA damage; cited from earlier work
[6] = system: HL-60 cell; conditions: 0.1 mM in cell medium; cited from earlier work
[7] = system: HL-60 cells; set-up: method as in PMID 19067382; conditions: SY in extracts of Elaphomyces granulates, concentrations up to ~31 µg·mL^−1; cited from earlier work
[8] = combined with 0.12 M H2O2, 0.35 mM RO
[9] = combined with 0.12 M H2O2, 0.7 mM RO
[10] = combined with 0.12 M H2O2, 1.39 mM RO
[11] = combined with 0.12 M H2O2, 2.78 mM RO
[12] = combined with 0.12 M H2O2, 0.15 mM SI
[13] = combined with 0.12 M H2O2, 0.29 mM SI
[14] = combined with 0.12 M H2O2, 0.58 mM SI
[15] = combined with 0.12 M H2O2, 1.16 mM SI
[16] = combined with 0.12 M H2O2, 0.16 mM SY
[17] = combined with 0.12 M H2O2, 0.32 mM SY
[18] = combined with 0.12 M H2O2, 0.63 mM SY
[19] = combined with 0.12 M H2O2, 1.26 mM SY

Compound: O=C(/C=C/c1ccc(O)c(O)c1)O[C@H](Cc1ccc(O)c(O)c1)C(=O)O [RO, rosmarinic acid]
- Genotoxic effect, comet assay [1]: no genotoxic effect
- Diagnosis, Small Single Spots 1–2 Cells m = 2 [2, 8]: −
- Diagnosis, Total Spots m = 2 [2, 8]: −
- Mutation rate, Large Single Spots >2 Cells m = 5 [2, 8]: 0 spots/wing
- Mutation rate, Small Single Spots 1–2 Cells m = 2 [2, 8]: 0.17 (5) spots/wing
- Mutation rate, Total Spots m = 2 [2, 8]: 0.17 (5) spots/wing
- Mutation rate, Twin Spots m = 5 [2, 8]: 0 spots/wing
- Diagnosis, Large Single Spots >2 Cells m = 5 [2, 9]: −
- Diagnosis, Small Single Spots 1–2 Cells m = 2 [2, 9]: −
- Diagnosis, Total Spots m = 2 [2, 9]: −
- Diagnosis, Twin Spots m = 5 [2, 9]: −
- Mutation rate, Large Single Spots >2 Cells m = 5 [2, 9]: 0.08 (3) spots/wing
- Mutation rate, Small Single Spots 1–2 Cells m = 2 [2, 9]: 0.35 (14) spots/wing
- Mutation rate, Total Spots m = 2 [2, 9]: 0.45 (18) spots/wing
- Mutation rate, Twin Spots m = 5 [2, 9]: 0.03 (1) spots/wing
- Diagnosis, Large Single Spots >2 Cells m = 5 [2, 10]: −
- Diagnosis, Small Single Spots 1–2 Cells m = 2 [2, 10]: −
- Diagnosis, Total Spots m = 2 [2, 10]: −
- Mutation rate, Large Single Spots >2 Cells m = 5 [2, 10]: 0.14 (3) spots/wing
- Mutation rate, Small Single Spots 1–2 Cells m = 2 [2, 10]: 0.14 (3) spots/wing
- Mutation rate, Total Spots m = 2 [2, 10]: 0.27 (6) spots/wing
- Mutation rate, Twin Spots m = 5 [2, 10]: 0 spots/wing
- Diagnosis, Small Single Spots 1–2 Cells m = 2 [2, 11]: −
- Diagnosis, Total Spots m = 2 [2, 11]: −
- Diagnosis, Twin Spots m = 5 [2, 11]: −
- Mutation rate, Large Single Spots >2 Cells m = 5 [2, 11]: 0 spots/wing
- Mutation rate, Small Single Spots 1–2 Cells m = 2 [2, 11]: 0.21 (11) spots/wing
- Mutation rate, Total Spots m = 2 [2, 11]: 0.25 (13) spots/wing
- Mutation rate, Twin Spots m = 5 [2, 11]: 0.04 (2) spots/wing
- IC50 at 72 h [3]: 70 µM
- Viable HL-60 cells ([4]; RO (alone or in the mixture) at concentrations over 0.55 mM): no viable cells could be detected

Compound: COc1cc(/C=C/C(=O)O)cc(OC)c1O [SI, sinapic acid]
- Diagnosis, Small Single Spots 1–2 Cells m = 2 [2, 12]: −
- Diagnosis, Total Spots m = 2 [2, 12]: −
- Mutation rate, Large Single Spots >2 Cells m = 5 [2, 12]: 0 spots/wing
- Mutation rate, Small Single Spots 1–2 Cells m = 2 [2, 12]: 0.42 (5) spots/wing
- Mutation rate, Total Spots m = 2 [2, 12]: 0.42 (5) spots/wing
- Mutation rate, Twin Spots m = 5 [2, 12]: 0 spots/wing
- Diagnosis, Small Single Spots 1–2 Cells m = 2 [2, 13]: −
- Diagnosis, Total Spots m = 2 [2, 13]: −
- Mutation rate, Large Single Spots >2 Cells m = 5 [2, 13]: 0 spots/wing
- Mutation rate, Small Single Spots 1–2 Cells m = 2 [2, 13]: 0.25 (2) spots/wing
- Mutation rate, Total Spots m = 2 [2, 13]: 0.25 (2) spots/wing
- Mutation rate, Twin Spots m = 5 [2, 13]: 0 spots/wing
- Diagnosis, Large Single Spots >2 Cells m = 5 [2, 14]: −
- Diagnosis, Small Single Spots 1–2 Cells m = 2 [2, 14]: −
- Diagnosis, Total Spots m = 2 [2, 14]: −
- Diagnosis, Twin Spots m = 5 [2, 14]: −
- Mutation rate, Large Single Spots >2 Cells m = 5 [2, 14]: 0.09 (2) spots/wing
- Mutation rate, Small Single Spots 1–2 Cells m = 2 [2, 14]: 0.27 (6) spots/wing
- Mutation rate, Total Spots m = 2 [2, 14]: 0.41 (9) spots/wing
- Mutation rate, Twin Spots m = 5 [2, 14]: 0.05 (1) spots/wing
- Diagnosis, Large Single Spots >2 Cells m = 5 [2, 15]: −
- Diagnosis, Small Single Spots 1–2 Cells m = 2 [2, 15]: −
- Diagnosis, Total Spots m = 2 [2, 15]: −
- Mutation rate, Large Single Spots >2 Cells m = 5 [2, 15]: 0.04 (1) spots/wing
- Mutation rate, Small Single Spots 1–2 Cells m = 2 [2, 15]: 0.25 (7) spots/wing
- Mutation rate, Total Spots m = 2 [2, 15]: 0.29 (8) spots/wing
- Mutation rate, Twin Spots m = 5 [2, 15]: 0 spots/wing
- Genotoxic/antigenotoxic activity [5]: antigenotoxic
- Effect on HL-60 growth [4]: did not affect HL-60 growth

Compound: COc1cc(C(=O)O)cc(OC)c1O [SY, syringic acid]
- Apoptosis induction in HL-60 [6]: did not induce apoptosis
- Cytotoxic effect in HL-60 [7]: no cytotoxic effect
- Diagnosis, Small Single Spots 1–2 Cells m = 2 [2, 16]: −
- Diagnosis, Total Spots m = 2 [2, 16]: −
- Mutation rate, Large Single Spots >2 Cells m = 5 [2, 16]: 0 spots/wing
- Mutation rate, Small Single Spots 1–2 Cells m = 2 [2, 16]: 0.23 (5) spots/wing
- Mutation rate, Total Spots m = 2 [2, 16]: 0.23 (5) spots/wing
- Mutation rate, Twin Spots m = 5 [2, 16]: 0 spots/wing
- Diagnosis, Small Single Spots 1–2 Cells m = 2 [2, 17]: −
- Diagnosis, Total Spots m = 2 [2, 17]: −
- Mutation rate, Large Single Spots >2 Cells m = 5 [2, 17]: 0 spots/wing
- Mutation rate, Small Single Spots 1–2 Cells m = 2 [2, 17]: 0.30 (3) spots/wing
- Mutation rate, Total Spots m = 2 [2, 17]: 0.30 (3) spots/wing
- Mutation rate, Twin Spots m = 5 [2, 17]: 0 spots/wing
- Diagnosis, Small Single Spots 1–2 Cells m = 2 [2, 18]: −
- Diagnosis, Total Spots m = 2 [2, 18]: −
- Mutation rate, Large Single Spots >2 Cells m = 5 [2, 18]: 0 spots/wing
- Mutation rate, Small Single Spots 1–2 Cells m = 2 [2, 18]: 0.28 (9) spots/wing
- Mutation rate, Total Spots m = 2 [2, 18]: 0.28 (9) spots/wing
- Mutation rate, Twin Spots m = 5 [2, 18]: 0 spots/wing
- Diagnosis, Small Single Spots 1–2 Cells m = 2 [2, 19]: −
- Diagnosis, Total Spots m = 2 [2, 19]: −
- Mutation rate, Large Single Spots >2 Cells m = 5 [2, 19]: 0 spots/wing
- Mutation rate, Small Single Spots 1–2 Cells m = 2 [2, 19]: 0.32 (7) spots/wing
- Mutation rate, Total Spots m = 2 [2, 19]: 0.32 (7) spots/wing
- Mutation rate, Twin Spots m = 5 [2, 19]: 0 spots/wing
- Effect on HL-60 growth [4]: did not affect HL-60 growth
